According to ChEMBL document CHEMBL3988181, “GlaxoSmithKline Published Kinase Inhibitor Set 2 Onchocerca lienalis Screening Data”:

experiment: GSK PKIS2: Screen against O. lienalis microfilariae, single point, at 3.1uM to assess reduction in motility. Compounds were also tested for cytotoxicity against Rhesus Monkey LLCMK2 cells.; type: functional, Onchocerca lienalis, LLC-MK2; details: CELL_LINE LLCMK2; CELL_SUPPLIER ECACC; CONC 3.1 uM; ORGANISM_SUPPLIER Extracted from peri-umbilical skin obtained from naturally infected cattle in the UK; temperature 37 degree C

Going from `COc1ccccc1CNC(=O)c1cc(C(=O)c2ccccc2C)c[nH]1` to `c1ccc(-c2n[nH]cc2Nc2ccnc3ccccc23)nc1`, the “MOTILITY REDUCTION/CYTOTOXICITY” value rises from 86.7% to 100%.

First: C[C@@H](Oc1cc(-n2cnc3ccc(-c4ccncc4)cc32)sc1C(N)=O)c1ccccc1Cl
Second: Nc1ncc(-c2ccc3nccc(-c4ccncc4)c3c2)cc1S(=O)(=O)N1CCCCC1
The “MOTILITY REDUCTION/CYTOTOXICITY” value of the first is lower: 0% for the first, 33.4% for the second.

`Nc1nccc(-c2ccc3c(N)n[nH]c3c2)n1` and `Nc1n[nH]c2cc(-c3ccccn3)ccc12` are the same in “MOTILITY REDUCTION/CYTOTOXICITY” value: 0% for the first, 0% for the second.

`O=c1[nH]cc(-c2ccc(O)cc2)c2sc(-c3ccncc3)cc12` and `FC(F)(F)c1ccc(-c2cc(-c3c[nH]nc3-c3ccccn3)ccn2)cc1` are the same in “MOTILITY REDUCTION/CYTOTOXICITY” value: 0% for the first, 0% for the second.

Compared with `NC(=O)c1cc(-c2ccccc2)cc2c(C3CCNCC3)c[nH]c12`, `c1ccc(-c2cc3ccncc3cc2OC2CCNCC2)cc1` is higher in “MOTILITY REDUCTION/CYTOTOXICITY” value: 0% for the first, 93.4% for the second.

`CC(C)(C)OC(=O)NC1CCCN(c2cc(-c3ccc4c(N)n[nH]c4c3)nc(N)n2)C1` (stereo not given) and `Nc1nc(-c2ccc3c(N)n[nH]c3c2)cc(N2CCCC2)n1` are the same in “MOTILITY REDUCTION/CYTOTOXICITY” value: 0% for the first, 0% for the second.

Going from `CC(C)c1nc(-c2cccc(NS(=O)(=O)c3c(F)cccc3F)c2F)c(-c2ccnc(Nc3ccc(N4CCOCC4)nc3)n2)s1` to `NS(=O)(=O)CCc1cccc(Nc2nccc(-c3c(-c4cccc(NC(=O)c5c(F)cccc5F)c4)nn4ccccc34)n2)c1`, the “MOTILITY REDUCTION/CYTOTOXICITY” value falls from 93.4% to 33.4%.

Compared with `Cc1cccc(Nc2nc(N[C@H]3CCCC[C@H]3N)ncc2C(N)=O)c1`, `O=c1[nH]ccc2nc(N[C@@H]3CCNC3)nc(Nc3ccc4c(c3)S(=O)(=O)CC4)c12` is lower in “MOTILITY REDUCTION/CYTOTOXICITY” value: 40% for the first, 0% for the second.

Compared with `Nc1nc(-c2ccccc2F)c(-c2ccnc3ccccc23)s1`, `Nc1nc(-c2nccs2)c(-c2ccnc3ccccc23)s1` is lower in “MOTILITY REDUCTION/CYTOTOXICITY” value: 46.7% for the first, 0% for the second.

`CCS(=O)(=O)c1ccc(OC)c(Nc2ncc(-c3ccc(F)cc3)o2)c1` and `CS(=O)(=O)Nc1ccc(-c2ccnc3[nH]ccc23)cc1` are the same in “MOTILITY REDUCTION/CYTOTOXICITY” value: 0% for the first, 0% for the second.

First: CN1CCN(CCCNc2nccc(-c3c(-c4ccc(F)cc4)nn4cc(C(N)=O)ccc34)n2)CC1
Second: N#Cc1ccc(CCNc2nccc(-c3cccc(CN4CCNCC4)c3)n2)cc1
The “MOTILITY REDUCTION/CYTOTOXICITY” value of the first is higher: 13.4% for the first, 0% for the second.

First: O=c1cc(N2CCOCC2)nc2n(Cc3cccc(Cl)c3Cl)ccn12
Second: O=c1cc(N2CCOCC2)nc2n(Cc3ccccc3F)ccn12
The “MOTILITY REDUCTION/CYTOTOXICITY” value of the first is higher: 80% for the first, 0% for the second.

Compared with `O=c1cc(N2CCOCC2)nc2n(Cc3cccc(C(F)(F)F)c3)ccn12`, `Cc1c(Cn2ccn3c(=O)cc(N4CCOCC4)nc23)cccc1C(F)(F)F` is lower in “MOTILITY REDUCTION/CYTOTOXICITY” value: 26.7% for the first, 0% for the second.

Compared with `O=c1cc(N2CCOCC2)nc2n(Cc3cccc(Cl)c3Cl)c3ccccc3n12`, `CSc1nn2c(=O)cc(N3CCOCC3)nc2n1Cc1cccc(Cl)c1Cl` is higher in “MOTILITY REDUCTION/CYTOTOXICITY” value: 0% for the first, 46.7% for the second.

`Cc1c(Cn2ccn3c(=O)nc(N4CCOCC4)cc23)cccc1C(F)(F)F` and `Cc1cc(N2Cc3ccccc3C2)nc(Nc2ccc(S(=O)(=O)N3CCOCC3)cc2)n1` are the same in “MOTILITY REDUCTION/CYTOTOXICITY” value: 0% for the first, 0% for the second.

`Cc1cccc(-c2cc(-c3c[nH]nc3-c3ccccn3)ccn2)c1` and `c1ccc(-c2cc(-c3c[nH]nc3-c3ccccn3)ccn2)cc1` are the same in “MOTILITY REDUCTION/CYTOTOXICITY” value: 0% for the first, 0% for the second.

`Nc1ncc(-c2cccnc2)c2scc(-c3ccc4c(c3)CCN4C(=O)Cc3ccccc3)c12` and `NCC(NC(=O)c1cc(-c2ccccc2)c(-c2ccnc3[nH]ccc23)s1)c1ccccc1` (stereo not given) are the same in “MOTILITY REDUCTION/CYTOTOXICITY” value: 0% for the first, 0% for the second.

`COC(=O)Nc1nc2ccc(Oc3ccc(NC(=O)Nc4cc(C(F)(F)F)ccc4F)cn3)cc2[nH]1` and `COC(=O)Nc1nc2cc(Oc3ccc(NC(=O)Nc4cc(C(F)(F)F)ccc4F)cc3)ccc2[nH]1` are the same in “MOTILITY REDUCTION/CYTOTOXICITY” value: 0% for the first, 0% for the second.

First: COC(=O)Nc1nc2ccc(Oc3ccc(CC(=O)Nc4cc(C(F)(F)F)ccc4F)cc3)cc2[nH]1
Second: COc1ccc(Nc2nccc(-c3ccc(NC(=O)c4cc5cc(F)ccc5[nH]4)cc3)n2)cc1
The “MOTILITY REDUCTION/CYTOTOXICITY” value of the first is lower: 33.4% for the first, 60% for the second.

`c1ccc(-c2n[nH]cc2-c2ccnc3ccccc23)nc1` and `Cc1ccc(C(=O)Nc2ccc(Nc3ccnc4cc(-c5ccccn5)ccc34)cc2O)cc1` are the same in “MOTILITY REDUCTION/CYTOTOXICITY” value: 0% for the first, 0% for the second.

Going from `Cc1nnc(-c2ccc(C)c(-c3ccc(C(=O)Nc4ccc(NS(C)(=O)=O)cc4)cc3)c2)o1` to `Cc1ccc(C)c(NC(=O)Nc2ccc(C)c(-c3ccc(C(=O)Nc4ccncc4)cc3)c2)c1`, the “MOTILITY REDUCTION/CYTOTOXICITY” value rises from 0% to 33.4%.

First: NCCC(NC(=O)c1cc(Br)c(-c2ccnc3[nH]ccc23)s1)c1ccccc1 (stereo not given)
Second: COc1ccc(Nc2nccc(NCCNC(=O)c3cc4ccccc4s3)n2)cc1
The “MOTILITY REDUCTION/CYTOTOXICITY” value of the first is lower: 13.4% for the first, 16.7% for the second.

Going from `CC(=O)c1c(-c2ccncc2)[nH]c(-c2ccncc2)c1C` to `Cc1cccc(-c2nc(C)cc(Nc3ccncc3)n2)n1`, the “MOTILITY REDUCTION/CYTOTOXICITY” value falls from 33.4% to 0%.

Compared with `O=C(NCCNc1ccnc(Nc2ccc(F)cc2)n1)Nc1ccccc1F`, `Cc1ccc(C)c(NC(=O)NCCNc2ccnc(Nc3ccc(F)cc3)n2)c1` is higher in “MOTILITY REDUCTION/CYTOTOXICITY” value: 0% for the first, 86.7% for the second.

Going from `Cn1cncc1-c1cc2c(Nc3ccc(OCc4ccccc4)cc3)ncnc2cn1` to `COc1cc2ncnc(Nc3ccc4nc(-c5ccccc5)[nH]c4c3)c2cc1OC`, the “MOTILITY REDUCTION/CYTOTOXICITY” value rises from 0% to 73.4%.

First: Cc1ccc(NC(=O)c2ccc(Cl)c(Cl)c2)cc1-c1ccc(C(=O)Nc2ccncc2)cc1
Second: Cc1ccc(NC(=O)Nc2ccccc2)cc1-c1ccc(C(=O)Nc2ccncc2)cc1
The “MOTILITY REDUCTION/CYTOTOXICITY” value of the first is lower: 26.7% for the first, 100% for the second.

Going from `Cc1ccc(Nc2ccnc(Nc3ccc4c(c3)CS(=O)(=O)C4)n2)cc1O` to `COC(=O)c1cccc(NC(=O)NCCNc2ccnc(Nc3ccc(F)cc3)n2)c1`, the “MOTILITY REDUCTION/CYTOTOXICITY” value falls from 80% to 0%.

First: COc1cc(Nc2nccc(N3CCC(NC(=O)Nc4cccc(C(C)=O)c4)C3)n2)cc(OC)c1OC (stereo not given)
Second: COc1cc(Nc2nccc(N3CCC(NC(=O)C(C)c4ccc(Cl)cc4)C3)n2)cc(OC)c1OC (stereo not given)
The “MOTILITY REDUCTION/CYTOTOXICITY” value of the first is higher: 100% for the first, 66.7% for the second.

First: Clc1cc(Cl)cc(Nc2ccnc(Nc3cc(Cl)cc(Cl)c3)n2)c1
Second: Fc1cc(Cl)ccc1Nc1ccnc2cc(I)ccc12
The “MOTILITY REDUCTION/CYTOTOXICITY” value of the first is higher: 86.7% for the first, 33.4% for the second.

Compared with `CN1CCN(Cc2cccc(-c3ccc4c(Nc5ccc(Oc6ccccc6)cc5)ccnc4c3)c2)CC1`, `O=C(Nc1cccc(-c2nn3ncccc3c2-c2ccnc(Nc3ccccc3)n2)c1)c1c(F)cccc1F` is lower in “MOTILITY REDUCTION/CYTOTOXICITY” value: 100% for the first, 0% for the second.

Compared with `COc1ccc(Nc2nccc(N3CCC(NC(=O)C(C)c4ccc(Cl)cc4)CC3)n2)cc1` (stereo not given), `COc1ccc(Nc2nccc(N3CCC(NC(=O)Nc4cc(C)ccc4C)C3)n2)cc1` (stereo not given) is lower in “MOTILITY REDUCTION/CYTOTOXICITY” value: 33.4% for the first, 0% for the second.

Going from `COc1cccc(NC(=O)Nc2ccc(C)c(-c3ccc(C(=O)Nc4ccncc4)cc3)c2)c1` to `COC(=O)C(Cc1ccccc1)NC(=O)NC1CCN(c2ccnc(Nc3ccc(F)cc3)n2)C1` (stereo not given), the “MOTILITY REDUCTION/CYTOTOXICITY” value falls from 100% to 13.4%.

In the case of `O=C(Nc1ccc2c(c1)OCO2)NC1CCN(c2ccnc(NCc3ccc(F)cc3)n2)CC1`, the “MOTILITY REDUCTION/CYTOTOXICITY” value is reported as 33.4%.
